Test results reported in patent US20160008277A1, “CO-PACKAGED DRUG PRODUCTS” (Lightlake Therapeutics Inc., priority 2014, published 2016).
Where two headings read alike, the source gives them in different places.

Assays:
[1] = for Cmax/D, GLSM: dose adjustment to 0.4 mg
[2] = system: suspected opiate overdose; details: cited from earlier work
[3] = system: patients with suspected opioid overdose; details: cited from earlier work
[4] = system: patients with suspected narcotic overdose; details: cited from earlier work
[5] = Safety of intranasal naloxone in humans (Study 1): nasal irritation, vital signs, ECG, clinical laboratory; type: in vivo, human
Description: These vital signs and temperature were also measured at screening, clinic intake, one day after each dosing session and at follow-up. […] AEs were recorded from the start of study-drug administration until clinic discharge. […] Clinical laboratory measurements were done prior to the first drug administration and on the day of clinic release.
Statistical Analysis of Adverse Events: AEs were coded using the most recent version of the Medical Dictionary for Regulatory Activities (MedDRA). Preferred terms and are grouped by system, organ, class (SOC) designation. AEs are presented as a listing including the start date, stop date, severity, relationship, outcome, and duration.

opiate addicts = details: cited from earlier work
[6] = 400 μL, cited from earlier work
[7] = Safety of intranasal naloxone in humans (Study 2): nasal irritation, adverse events, vital signs, ECG; type: in vivo, human
Excerpt: Specifically, the study had several objectives.
AEs were coded using the most recent version of the Medical Dictionary for Regulatory Activities (MedDRA) preferred terms and grouped by system, organ, class (SOC) designation. Separate summaries will be provided for the 5 study periods: after the administration of each dose of study drug up until the time of the next dose of study drug or clinic discharge. Listings of each individual AE including start date, stop date, severity, relationship, outcome, and duration were provided. Results are given below in Tables 12 and 13.

[8] = system: suspected opiate overdose; details: cited from earlier work; remark: listed apart in the source
clinical = details: human, plasma; for AUC(0-t): AUC0-t; for AUC(0-inf): AUC0-∞
[9] = 2 mg nasal solution dose; cited from earlier work
[10] = im, 0.4 mg, GLSM, 0.4 mg IM, no dose adjustment
[11] = other: intranasal, 2 mg, GLSM, 2 mg IN, no dose adjustment
[12] = other: intranasal, 2 mg, Mean, 2 mg IN
[13] = other: intranasal, 4 mg, GLSM, 4 mg IN, no dose adjustment
[14] = other: intranasal, 4 mg, Mean, 4 mg IN

Compound: C=CCN1CC[C@]23c4c5ccc(O)c4O[C@H]2C(=O)CC[C@@]3(O)[C@H]1C5 [naloxone, 17-allyl-4,5a-epoxy-3,14-dihydroxymorphinan-6-one]
- λz, Mean ([1]; 0.4 mg IM): 0.593 h⁻¹
- Cmax/D, GLSM ([1]; 0.4 mg IM): 0.755 ng/mL
- λz, Mean ([1]; 2 mg IN): 0.588 h⁻¹
- Frel, Mean ([1]; 2 mg IN versus IM): 0.571
- Cmax/D, GLSM ([1]; 2 mg IN): 0.510 ng/mL
- Frel, Mean ([1]; 4 mg IN versus IM): 0.475
- Cmax/D, GLSM ([1]; 4 mg IN): 0.466 ng/mL
- patients with more than 10 spontaneous respirations per minute within 8 minutes ([2]; 2 mg IM group): 82%
- patients with more than 10 spontaneous respirations per minute within 8 minutes ([2]; 2 mg IN group): 63%
- patients needing rescue naloxone ([2]; IM group): 13%
- patients needing rescue naloxone ([2]; IN group): 26%
- mean interval from EMS arrival to a respiratory rate of ≧10 breaths/min ([3]; naloxone 0.4 mg IV): 9.3 ± 4.2 min
- mean interval from EMS arrival to a respiratory rate of ≧10 breaths/min ([3]; naloxone 0.8 mg SQ): 9.6 ± 4.58 min
- Clinical response noted ([4]; IN group (2 mg), 33 of 50): 66%
- mean time between naloxone administration and clinical response ([4]; IN group): 12.9 min
- patients who received two doses of naloxone ([4]; IN group): 34%
- Clinical response noted ([4]; IV group, 58 of 104): 56%
- mean time between naloxone administration and clinical response ([4]; IV group): 8.1 min
- patients who received two doses of naloxone ([4]; IV group): 18%
- Pharyngeal pain ([5]; 2 mg IN dose): One subject experienced mild transient (over 3 min) pharyngeal pain
- Nasal irritation (erythema, edema, erosion, other sign in the nasal cavity) ([5]; IN naloxone at 2 and 4 mg to both nostrils): No erythema, edema, erosion, or other sign was observed
- QTcF prolongation ([5]; Study 1): no evidence of QTcF prolongation
- Vital signs, ECG, and clinical laboratory parameters ([5]; after naloxone administration, Study 1): did not reveal any clinically noteworthy changes
- effectiveness of nasal administration compared with intravenous route (opiate addicts): as effective as the intravenous route
- mean Tmax ([6]; 8 mg IN): 20.4 min
- mean Tmax ([6]; 16 mg IN): 23.4 min
- Dizziness (adverse events) ([7]; 0.4 mg Intramuscular Dose): 1
- Headache (adverse events) ([7]; 0.4 mg Intramuscular Dose): 1
- Nausea (adverse events) ([7]; 0.4 mg Intramuscular Dose): 1
- Edema (events related to nasal irritation) ([7]; 2 mg (20 mg/mL, one spray)): 2
- Erythema (events related to nasal irritation) ([7]; 2 mg (20 mg/mL, one spray)): 4
- Nasal Pain (adverse events) ([7]; 2 mg (20 mg/mL, one spray)): 1
- Other (events related to nasal irritation) ([7]; 2 mg (20 mg/mL, one spray)): 1
- Total (events related to nasal irritation) ([7]; 2 mg (20 mg/mL, one spray)): 7
- Edema (events related to nasal irritation) ([7]; 4 mg (20 mg/mL, two sprays)): 0
- Erythema (events related to nasal irritation) ([7]; 4 mg (20 mg/mL, two sprays)): 1
- Other (events related to nasal irritation) ([7]; 4 mg (20 mg/mL, two sprays)): 0
- Total (events related to nasal irritation) ([7]; 4 mg (20 mg/mL, two sprays)): 1
- Edema (events related to nasal irritation) ([7]; 4 mg (40 mg/mL, one spray)): 2
- Erythema (events related to nasal irritation) ([7]; 4 mg (40 mg/mL, one spray)): 1
- Other (events related to nasal irritation) ([7]; 4 mg (40 mg/mL, one spray)): 0
- Total (events related to nasal irritation) ([7]; 4 mg (40 mg/mL, one spray)): 3
- Edema (events related to nasal irritation) ([7]; 8 mg (40 mg/mL, two sprays)): 1
- Erythema (events related to nasal irritation) ([7]; 8 mg (40 mg/mL, two sprays)): 0
- Headache (adverse events) ([7]; 8 mg (40 mg/mL, two sprays)): 1
- Other (events related to nasal irritation) ([7]; 8 mg (40 mg/mL, two sprays)): 0
- Total (events related to nasal irritation) ([7]; 8 mg (40 mg/mL, two sprays)): 1
- Relation of nasal irritation to the dose of naloxone given ([7]; 2 to 8 mg IN): did not appear to be positively related to the dose
- QTcF prolongation ([7]; Study 2): no evidence of QTcF prolongation
- Vital signs, ECG, and clinical laboratory parameters ([7]; after naloxone administration, Study 2): did not reveal any clinically noteworthy changes
- Adverse events overall ([7]; nasal or intramuscular administration, Study 2): few adverse events were reported
- AUC % Extrapolate, mean (% CV) (0.4 mg IM): 2.32 (54.1) %
- Lambda z (harmonic mean) (0.4 mg IM): 0.5534 h⁻¹
- Lambda z (harmonic mean) (0.4 mg IM, Female): 0.6140 h⁻¹
- Lambda z (harmonic mean) (0.4 mg IM, Male): 0.5152 h⁻¹
- Lambda z (harmonic mean) (One 20 mg/mL IN, Female): 0.3978 h⁻¹
- Lambda z (harmonic mean) (One 20 mg/mL IN, Male): 0.3492 h⁻¹
- Lambda z (harmonic mean) (One 40 mg/mL IN, Female): 0.2946 h⁻¹
- Lambda z (harmonic mean) (One 40 mg/mL IN, Male): 0.3386 h⁻¹
- AUC % Extrapolate, mean (% CV) (One Spray - 2 mg 20 mg/mL IN): 1.09 (41.9) %
- Lambda z (harmonic mean) (One Spray - 2 mg 20 mg/mL IN): 0.3685 h⁻¹
- AUC % Extrapolate, mean (% CV) (One Spray - 4 mg 40 mg/mL IN): 1.06 (52.5) %
- Lambda z (harmonic mean) (One Spray - 4 mg 40 mg/mL IN): 0.3182 h⁻¹
- Lambda z (harmonic mean) (Two 20 mg/mL IN, Female): 0.2796 h⁻¹
- Lambda z (harmonic mean) (Two 20 mg/mL IN, Male): 0.3122 h⁻¹
- Lambda z (harmonic mean) (Two 40 mg/mL IN, Female): 0.2994 h⁻¹
- Lambda z (harmonic mean) (Two 40 mg/mL IN, Male): 0.3407 h⁻¹
- AUC % Extrapolate, mean (% CV) (Two Sprays - 4 mg 20 mg/mL IN): 1.01 (53.9) %
- Lambda z (harmonic mean) (Two Sprays - 4 mg 20 mg/mL IN): 0.2973 h⁻¹
- AUC % Extrapolate, mean (% CV) (Two Sprays - 8 mg 40 mg/mL IN): 1.04 (78.1) %
- Lambda z (harmonic mean) (Two Sprays - 8 mg 40 mg/mL IN): 0.3217 h⁻¹
- patients responding to IN naloxone alone ([8]; 2 mg IN, 43 of 52 patients who responded to naloxone by IN or IV): 83%
- median time from administration of the IN naloxone to patient awakening ([8]; 2 mg IN): 3.0 min
- median time from arrival at patient side to awakening ([8]; 2 mg IN): 8.0 min
- patients requiring further doses of IV naloxone ([8]; among responders to 2 mg IN alone): 16%
- AUC(0-t) (clinical; [10]): 1.35 ng·h/mL
- AUC(0-t) (clinical; im, 0.4 mg, Mean, 0.4 mg IM): 1.38 ng·h/mL
- AUC(0-inf) (clinical; [10]): 1.39 ng·h/mL
- AUC(0-inf) (clinical; im, 0.4 mg, Mean, 0.4 mg IM): 1.42 ng·h/mL
- Tmax (clinical; im, 0.4 mg, GLSM, 0.4 mg IM): 18.5 min
- Tmax (clinical; im, 0.4 mg, Mean, 0.4 mg IM): 20.3 min
- AUC(0-t) (clinical; [11]): 3.28 ng·h/mL
- AUC(0-t) (clinical; [12]): 3.41 ng·h/mL
- AUC(0-inf) (clinical; [11]): 3.32 ng·h/mL
- AUC(0-inf) (clinical; [12]): 3.44 ng·h/mL
- Tmax (clinical; other: intranasal, 2 mg, GLSM, 2 mg IN): 20 min
- Tmax (clinical; [12]): 20 min
- AUC(0-t) (clinical; [13]): 5.41 ng·h/mL
- AUC(0-t) (clinical; [14]): 5.63 ng·h/mL
- AUC(0-inf) (clinical; [13]): 5.47 ng·h/mL
- AUC(0-inf) (clinical; [14]): 5.68 ng·h/mL
- Tmax (clinical; other: intranasal, 4 mg, GLSM, 4 mg IN): 17.5 min
- Tmax (clinical; [14]): 18.4 min
- Cmax (predicted by Wermeling) [9]: 3 to 5 ng/mL
- tmax (predicted by Wermeling) [9]: approximately 20 minutes
